The molecules below were run on rat small-intestinal brush border membrane vesicles (assay: Inhibitory effect on 33PO4 uptake into rat small-intestinal brush border membrane vesicles (rapid filtration method)). Details: 1 µM test compound; 33PO4 uptake into rat small-intestinal BBMVs, 60 seconds.
Assay type: biochemical, Wistar female rat
Protocol: The ^33PO4 transport activity of the small-intestinal BBMVs was determined by the rapid filtration method. […] Then, ice-cold buffer C (110 mM NaCl, 1 mM KH2PO4, and 10 mM HEPES (pH 7.5)) was added to each reaction mixture, which was immediately suction-filtered through a Millipore filter. The filter was washed with buffer C, and each sample was then dissolved in a liquid scintillator. The amount of ^33PO4 uptake into BBMVs was measured using a liquid scintillation counter. […]

Point of comparison: `COC(=O)c1cccc(CN2C(=O)C(C(=O)Nc3ccc(C(F)(F)F)cc3-c3cc(C(F)(F)F)ncn3)=C(O)[C@@]3(C)CCCN23)c1` [Example 183], “Rate of uptake inhibition (%) (1 µM)” value 82%. Against it:
- Cc1cc(NC(=O)C2=C(O)[C@@]3(C)CCCN3N(Cc3cccc(F)c3F)C2=O)c(C(F)(F)F)o1 [Example 7] — lower, 69%
- COc1cccc(-c2cc(C(F)(F)F)ccc2NC(=O)C2=C(O)[C@@]3(C)CCCN3N(Cc3cccc(F)c3F)C2=O)n1 [Example 93] — lower, 56%
- C[C@]12CCCN1N(Cc1ccccc1)C(=O)C(C(=O)Nc1ccc(C(F)(F)F)cc1-c1cc(C(F)(F)F)ncn1)=C2O [Example 188] — higher, 93%
- COCCN(C)CCNc1ccc(CN2C(=O)C(C(=O)Nc3ccc(C(F)(F)F)cc3-c3cc(C(F)(F)F)ncn3)=C(O)C3(CCCC3)N2C)c(F)c1F [Example 417, 7-(2,3-Difluoro-4-((2-((2-methoxyethyl)(methyl)amino)ethyl)amino)benzyl)-10-hydroxy-6-methyl-8-oxo-N-(4-(trifluoromethyl)-2-(6-(trifluoromethyl)pyrimidin-4-yl)phenyl)-6,7-diazaspiro[4.5]dec-9-ene-9-carboxamide] — lower, 48%
- CN(C[C@H](O)[C@@H](O)[C@H](O)[C@H](O)CO)C(=O)COCCOCCOCCOCCOc1ccc(CN2C(=O)C(C(=O)Nc3ccc(C(F)(F)F)cc3-c3cc(C(F)(F)F)ncn3)=C(O)C3(CCCC3)N2C)c(F)c1F [Example 441, 7-[[2,3-Difluoro-4-[2-[2-[2-[2-[2-[methyl-[(2S,3R,4R,5R)-2,3,4,5,6-pentahydroxyhexyl]amino]-2-oxoethoxy]ethoxy]ethoxy]ethoxy]ethoxy]phenyl]methyl]-10-hydroxy-6-methyl-8-oxo-N-[4-(trifluoromethyl)-2-[6-(trifluoromethyl)pyrimidin-4-yl]phenyl]-6,7-diazaspiro[4.5]dec-9-ene-9-carboxamide] — lower, 22%
- CN1N(Cc2cccc(F)c2F)C(=O)C(C(=O)Nc2ccc(C(F)(F)F)nc2-c2cncc(C(F)(F)F)c2)=C(O)C1(C)C [Example 306] — lower, 58%
- CN1N(Cc2cccc(F)c2F)C(=O)C(C(=O)Nc2ccc(Cl)cc2-c2cc(C(F)(F)F)ncn2)=C(O)C12CCC2 [Example 255] — lower, 80%
- C[C@]12CCCN1N(Cc1c(F)cc(CCCCCCCOC[C@H](O)[C@@H](O)CO)cc1F)C(=O)C(C(=O)Nc1ccc(C(F)(F)F)cc1-c1ccc(C(F)(F)F)nc1)=C2O [Example 125, (4aR)-1-[[2,6-Difluoro-4-[7-[(2S,3S)-2,3,4-trihydroxybutoxy]heptyl]phenyl]methyl]-4-hydroxy-4a-methvl-2-oxo-N-[4-(trifluoromethyl)-2-[6-(trifluoromethyl)pyridin-3-yl]phenyl]-6,7-dihydro-5H-pyrrolo[1,2-b]pyridazine-3-carboxamide] — lower, 76%
- CN1N(Cc2ccc(OCCN3CCOC(C)(C)C3)c(F)c2F)C(=O)C(C(=O)Nc2ccc(C(F)(F)F)cc2-c2cc(C(F)(F)F)ncn2)=C(O)C12CCC2 [Example 342] — lower, 43%
- COCCOCCOCCCCCCCCN1C(=O)C(C(=O)Nc2ccc(C(F)(F)F)cc2-c2cc(C(F)(F)F)ncn2)=C(O)[C@@]2(C)CCCN12 [Example 236, (4aR)-4-Hydroxy-1-[8-[2-(2-methoxyethoxy)ethoxy]octyl]-4a-methyl-2-oxo-N-[4-(trifluoromethyl)-2-[6-(trifluoromethyl)pyrimidine-4-yl]phenyl]-6,7-dihydro-5H-pyrrolo[1,2-b]pyridazine-3-carboxamide] — lower, 60%
- C[C@]12CCCN1N(Cc1cccc(OC(F)F)c1)C(=O)C(C(=O)Nc1ccc(C(F)(F)F)cc1-c1ccc(C(F)(F)F)nc1)=C2O [Example 167] — lower, 73%
- C[C@]12CCCN1N(Cc1cccc(F)c1F)C(=O)C(C(=O)Nc1ccc(C(F)(F)F)cc1-c1ccc(C(F)(F)F)nc1Br)=C2O [Example 85] — lower, 71%
- CC(=O)N(C)CCN(C)CCOc1ccc(CN2C(=O)C(C(=O)Nc3ccc(C(F)(F)F)cc3-c3cc(C(F)(F)F)ncn3)=C(O)C3(CCC3)N2C)c(F)c1F [Example 354] — lower, 31%
- COCCN(C)CCOCCOc1ccc(CN2C(=O)C(C(=O)Nc3ccc(C(F)(F)F)cc3-c3cc(C(F)(F)F)ncn3)=C(O)C3(CCCC3)N2C)c(F)c1F [Example 429, 7-[[2,3-Difluoro-4-[2-[2-[2-methoxyethyl(methyl)amino]ethoxy]ethoxy]phenyl]methyl]-10-hydroxy-6-methyl-8-oxo-N-[4-(trifluoromethyl)-2-[6-(trifluoromethyl)pyrimidin-4-yl]phenyl]-6,7-diazaspiro[4.5]dec-9-ene-9-carboxamide] — lower, 41%
- C[C@]12CCCN1N(Cc1cccc(C#N)c1)C(=O)C(C(=O)Nc1ccc(C(F)(F)F)cc1-c1cc(C(F)(F)F)ncn1)=C2O [Example 179] — higher, 83%
- C[C@]12CCCN1N(Cc1c(F)cc(C#CCCCCOC[C@H](O)CO)cc1F)C(=O)C(C(=O)Nc1ccc(C(F)(F)F)cc1-c1ccc(C(F)(F)F)nc1)=C2O.[Na+] [Example 143] — lower, 71%
- C[C@]12CCCN1N(Cc1cccc(F)c1F)C(=O)C(C(=O)Nc1cc(F)c(Br)c(F)c1)=C2O [Example 29] — lower, 75%
- CN1N(Cc2ccc(OCCCOC[C@H](O)CO)c(F)c2F)C(=O)C(C(=O)Nc2ccc(C(F)(F)F)cc2-c2ccc(C(F)(F)F)nc2)=C(O)C12CCCC2 [Example 386] — lower, 36%
- CSc1ccc(-c2cc(C(F)(F)F)ccc2NC(=O)C2=C(O)[C@@]3(C)CCCN3N(Cc3ccc(OCCN4CCOCC4)c(F)c3F)C2=O)cn1 [Example 103] — lower, 78%
- (4aS)-1-[(2,3-Difluorophenyl)methyl]-6,6-difluoro-4-hydroxy-N-[5-methyl-2-(trifluoromethyl)furan-3-yl]-2-oxo-5,7-dihydro-4aH-pyrrolo[1,2-b]pyridazine-3-carboxamide [Example 5] — lower, 54%
- C[C@]12CCCN1N(Cc1cc(F)c(F)cc1F)C(=O)C(C(=O)Nc1cc(F)c(Br)c(F)c1)=C2O [Example 194] — lower, 80%
- CN1N(Cc2ccc(OCCN3CCOCC3)c(F)c2F)C(=O)C(C(=O)Nc2ccc(C(F)(F)F)cc2-c2ccc(C(F)(F)F)nc2)=C(O)C12CCCC2 [Example 287] — lower, 47%
- C[C@]12CCCN1N(Cc1ccc(CCCCCCC(=O)O)c(F)c1F)C(=O)C(C(=O)Nc1ccc(Cl)cc1-c1ccc(C(F)(F)F)nc1)=C2O [Example 116, 7-[4-[[(4aR)-3-[[4-Chloro-2-[6-(trifluoromethyl)pyridin-3-yl]phenyl]carbamoyl]-4-hydroxy-4a-methyl-2-oxo-6,7-dihydro-5H-pyrrolo[1,2-b]pyridazin-1-yl]methyl]-2,3-difluorophenyl]heptanoate] — lower, 72%
- CN1N(Cc2cccc(F)c2F)C(=O)C(C(=O)Nc2ccc(C(F)(F)F)cc2-c2ccc(C(F)(F)F)nc2)=C(O)C12CCC2 [Example 301] — lower, 79%

Same assay, conditions: 1 µM test compound; 33PO4 uptake into rat small-intestinal BBMVs, 60 seconds; 1 µM

“6-[[2,3-Difluoro-4-[1-(2-methoxyethyl)azetidin-3-yl]oxyphenyl]methyl]-9-hydroxy-5-methyl-7-oxo-N-[4-(trifluoromethyl)-2-[6-(trifluoromethyl)pyrimidin-4-yl]phenyl]-5,6-diazaspiro[3.5]non-8-ene-8-carboxamide [Example 413]” was tested, and the “Rate of uptake inhibition (%) (1 µM)” value was 34%.

— patent publication EP2975030B1, “DIHYDROPYRIDAZINE-3,5-DIONE DERIVATIVE” (Chugai Seiyaku Kabushiki Kaisha, priority 2013, dated 2014)
